Structures are written as SMILES. Where a name gives a salt, the structure may show the parent alone. Some results are limits rather than exact numbers.

One assay has as its system episomal HPV-16 DNA in W12-20850 cells. Description: W-12 cellular assay (episomal HPV-16 DNA, hybrid capture). As to conditions: Human papillomavirus 16, 96 h; W12-20850 cells, four days incubation, episomal HPV-16 DNA quantified by hybrid capture, inhibition relative to untreated control cells; read-out: W-12. In kind it is cell-based, HPV16.
For `Clc1ccc(NC2CCCc3c2[nH]c2ccc(Br)cc32)cc1` (stereo not drawn) [Example 20, 6-Bromo-N-(4-chlorophenyl)-2,3,4,9-tetrahydro-1H-carbazol-1-amine], the IC50 was < 10 nM.
As to `Fc1ccc(NC2CCCc3c2[nH]c2ccc(Br)cc32)cc1` (stereo not drawn) [Example 21, 6-Bromo-N-(4-fluorophenyl)-2,3,4,9-tetrahydro-1H-carbazol-1-amine], the IC50 is < 10 nM.
The same measure, in the same setting: next, `Brc1ccc2[nH]c3c(c2c1)CCCCC3Nc1ncccn1` (stereo not drawn) [Example 38, 2-Bromo-N-pyrimidin-2-yl-5,6,7,8,9,10-hexahydrocyclohepta[b]indol-6-amine]: < 10 nM; `Clc1ccc(NC2CCCc3c2[nH]c2ccc(Cl)cc32)cc1` (stereo not drawn) [Example 16, 6-Chloro-N-(4-chlorophenyl)-2,3,4,9-tetrahydro-1H-carbazol-1-amine]: 14 nM.
For `Brc1ccc2[nH]c3c(c2c1)CCCC3Nc1nc2ccccc2s1` (stereo not drawn) [Example 36, N-(1,3-Benzothiazol-2-yl)-6-bromo-2,3,4,9-tetrahydro-1H-carbazol-1-amine], the IC50 came to 72 nM.
Same read-out and setting: for `Cc1ccnc(NC2CCCc3c2[nH]c2ccc(Cl)cc32)n1` (stereo not drawn) [Example 25, 6-Chloro-N-(4-methylpyrimidin-2-yl)-2,3,4,9-tetrahydro-1H-carbazol-1-amine] the value was 35 nM; for `Fc1ccc(NC2CCCc3c2[nH]c2ccc(Cl)cc32)cc1` (stereo not drawn) [Example 17, 6-Chloro-N-(4-fluorophenyl)-2,3,4,9-tetrahydro-1H-carbazol-1-amine], 23 nM.
Still for that read-out and setting: for `CCCc1cnc(NC2CCCc3c2[nH]c2ccc(Br)cc32)nc1` (stereo not drawn) [Example 28, 6-Bromo-N-(5-propylpyrimidin-2-yl)-2,3,4,9-tetrahydro-1H-carbazol-1-amine] the value was 15 nM; for `FC(F)(F)c1cnc(NC2CCCc3c2[nH]c2ccc(Br)cc32)nc1` (stereo not drawn) [Example 33, 6-Bromo-N-[5-(trifluoromethyl)pyrimidin-2-yl]-2,3,4,9-tetrahydro-1H-carbazol-1-amine], 44 nM.
With `FC(F)(F)c1ccc(NC2CCCc3c2[nH]c2ccc(Br)cc32)nc1` (stereo not drawn) [Example 34, 6-Bromo-N-[5-(trifluoromethyl)pyridin-2-yl]-2,3,4,9-tetrahydro-1H-carbazol-1-amine], the IC50 was < 10 nM.
As to `Clc1ccc2[nH]c3c(c2c1)CCCC3Nc1ccccc1` (stereo not drawn) [Example 14, 6-Chloro-N-phenyl-2,3,4,9-tetrahydro-1H-carbazol-1-amine], the IC50 is < 10 nM.
In the case of `COc1cccc(NC2CCCc3c2[nH]c2ccc(Br)cc32)c1` (stereo not drawn) [Example 45, 6-Bromo-N-(3-methoxyphenyl)-2,3,4,9-tetrahydro-1H-carbazol-1-amine], the IC50 is < 10 nM.
On the same count and under the same terms, for `COc1ccccc1NC1CCCc2c1[nH]c1ccc(Br)cc21` (stereo not drawn) [Example 48, 6-Bromo-N-(2-methoxyphenyl)-2,3,4,9-tetrahydro-1H-carbazol-1-amine] the value was 57 nM; for `Clc1ccc2[nH]c3c(c2c1)CCCC3Nc1ncccn1` (stereo not drawn) [Example 23, 6-Chloro-N-pyrimidin-2-yl-2,3,4,9-tetrahydro-1H-carbazol-1-amine], 44 nM; for `Brc1ccc2[nH]c3c(c2c1)CCCC3Nc1ccc2[nH]ccc2c1` (stereo not drawn) [Example 47, 6-Bromo-N-(1H-indol-5-yl)-2,3,4,9-tetrahydro-1H-carbazol-1-amine], 112 nM.
Regarding `COc1ccc(NC2CCCc3c2[nH]c2ccc(Cl)cc32)cc1` (stereo not drawn) [Example 15, 6-Chloro-N-(4-methoxyphenyl)-2,3,4,9-tetrahydro-1H-carbazol-1-amine], the IC50 stood at 10 nM.
Regarding `Brc1ccc2[nH]c3c(c2c1)CCCC3Nc1ccccc1` (stereo not drawn) [Example 13, 6-Bromo-N-phenyl-2,3,4,9-tetrahydro-1H-carbazol-1-amine], the IC50 is 10 nM.
With `Clc1ccc(NC2CCCc3c2[nH]c2ccc(Br)cc32)cc1Cl` (stereo not drawn) [Example 51, 6-Bromo-N-(3,4-dichlorophenyl)-2,3,4,9-tetrahydro-1H-carbazol-1-amine], the IC50 is 22 nM.
Consider `Fc1ccccc1NC1CCCc2c1[nH]c1ccc(Br)cc21` (stereo not drawn) [Example 50, 6-Bromo-N-(2-fluorophenyl)-2,3,4,9-tetrahydro-1H-carbazol-1-amine], for which the IC50 was found to be 70 nM.
The same measure, in the same setting: for `Clc1ccccc1NC1CCCc2c1[nH]c1ccc(Br)cc21` (stereo not drawn) [Example 49, 6-Bromo-N-(2-chlorophenyl)-2,3,4,9-tetrahydro-1H-carbazol-1-amine] the value was < 10 nM; for `c1cnc(NC2CCCc3c2[nH]c2ccccc32)nc1` (stereo not drawn) [Example 37, N-Pyrimidin-2-yl-2,3,4,9-tetrahydro-1H-carbazol-1-amine], 4500 nM; for `COc1cc(OC)nc(NC2CCCc3c2[nH]c2ccc(Cl)cc32)n1` (stereo not drawn) [Example 24, 6-Chloro-N-(4,6-dimethoxypyrimidin-2-yl)-2,3,4,9-tetrahydro-1H-carbazol-1-amine], 30 nM.
For `Fc1cccc(NC2CCCc3c2[nH]c2ccc(Br)cc32)c1` (stereo not drawn) [Example 46, 6-Bromo-N-(3-fluorophenyl)-2,3,4,9-tetrahydro-1H-carbazol-1-amine], the IC50 was < 10 nM.
On the same count and under the same terms, for `Cc1ccc(NC2CCCc3c2[nH]c2ccc(Cl)cc32)cc1` (stereo not drawn) [Example 18, 6-Chloro-N-(4-methylphenyl)-2,3,4,9-tetrahydro-1H-carbazol-1-amine] the value was 19 nM; for `COc1ccc(NC2CCCc3c2[nH]c2ccc(Br)cc32)cc1` (stereo not drawn) [Example 19, 6-Bromo-N-(4-methoxyphenyl)-2,3,4,9-tetrahydro-1H-carbazol-1-amine], < 10 nM; for `N#Cc1ccc(NC2CCCc3c2[nH]c2ccc(Br)cc32)nc1` (stereo not drawn) [Example 35, 6-[(6-Bromo-2,3,4,9-tetrahydro-1H-carbazol-1-yl)amino]nicotinonitrile], 30 nM.
Turning to `Cc1ccc2[nH]c3c(c2c1)CCCC3Nc1ncccn1` (stereo not drawn) [Example 29, 6-Methyl-N-pyrimidin-2-yl-2,3,4,9-tetrahydro-1H-carbazol-1-amine], the IC50 was determined as 252 nM.
Same read-out and setting: for `Cc1cc(C)nc(NC2CCCc3c2[nH]c2ccc(Cl)cc32)n1` (stereo not drawn) [Example 26, 6-Chloro-N-(4,6-dimethylpyrimidin-2-yl)-2,3,4,9-tetrahydro-1H-carbazol-1-amine] the value was 62 nM.

The assay is the same for the next values; noted with them: Human papillomavirus 16, W12-20850, 96 h, read-out: W-12 (nM).
In the case of `COc1cc(OC)nc(NC2CCCc3c2[nH]c2ccc(C)cc32)n1` (stereo not drawn) [Example 31, N-(4,6-Dimethoxypyrimidin-2-yl)-6-methyl-2,3,4,9-tetrahydro-1H-carbazol-1-amine hydrochloride], the IC50 was 70 nM.
Take `Cc1cc(C)nc(NC2CCCc3c2[nH]c2ccc(Br)cc32)n1` (stereo not drawn) [Example 32, 6-Bromo-N-(4,6-dimethylpyrimidin-2-yl)-2,3,4,9-tetrahydro-1H-carbazol-1-amine hydrochloride]: the IC50 came to 12 nM.
Same read-out and setting: for `Brc1ccc2[nH]c3c(c2c1)CCCC3Nc1ncccn1` (stereo not drawn) [Example 22, 6-Bromo-N-pyrimidin-2-yl-2,3,4,9-tetrahydro-1H-carbazol-1-amine hydrochloride] the value was 97 nM; for `Brc1ccc2[nH]c3c(c2c1)CCCC3Nc1ccccn1` (stereo not drawn) [Example 27, 6-Bromo-N-pyridin-2-yl-2,3,4,9-tetrahydro-1H-carbazol-1-amine hydrochloride], 37 nM.
As to `FC(F)(F)c1ccc2[nH]c3c(c2c1)CCCC3Nc1ccccc1` (stereo not drawn) [Example 43, N-Phenyl-6-(trifluoromethyl)-2,3,4,9-tetrahydro-1H-carbazol-1-amine hydrochloride], the IC50 stood at 51 nM.

Values taken from patent US7351733B2, “Tetrahydrocarbazole derivatives and their pharmaceutical use” (SmithKline Beecham Corporation, priority 2003, dated 2008).
